Measured values taken from patent US20040248764A1 (priority 2001, published 2004).
Values after ≈ are worked out from the molar mass of the structure shown. Values joined by “and” are separate entries in the source; they are usually repeats but may differ in a detail not shown here. Equal entries are not always repeated. Where two headings read alike, the source gives them in different places.

How the values were obtained:
[1] = tested on: Xylella; type: cell-based
[2] = tested on: Xylella sp. strains Shiraz, Melody, Coyaga; type: cell-based; conditions: 10^8 CFU
[3] = tested on: Spiroplasma citri; type: cell-based
[4] = tested on: S. melliferum; type: cell-based
[5] = tested on: S. apis; type: cell-based
[6] = tested on: S. floricola; type: cell-based
[7] = tested on: Mycoplasma iowae; type: cell-based
[8] = tested on: aster yellow phytoplasma (AYP); type: in vivo, Catharanthus roseus
[9] = tested on: Xylella fastidiosa strains; experiment: microbe, parasite or virus in culture; type: cell-based; conditions: for MIC: Xylella fastidiosa
[10] = tested on: Xylella fastidiosa; type: in vivo, grapevines
[11] = tested on: X. fastidiosa-infected grapevines; conditions: in vivo
[12] = tested on: X. fastidiosa-infected grapevines; conditions: in vivo; remark: listed apart in the source
[13] = tested on: grape; conditions: in vivo
[14] = tested on: healthy vines; conditions: in vivo
[15] = tested on: E. coli; conditions: cited from earlier work

SMILES: CC(C)=CCCC(C)=CC=O [citral, 3,7-dimethyl-2,6-octadien-1-al]
- effect on Xylella ([1]; 62.5 ppm citral): No complete kill but get stasis
- kill of Xylella ([1]; 125 ppm citral): 100% kill
- kill of Xylella ([1]; 500 ppm citral): 100% kill
- Xylella growth (CFU) ([2]; strain Coyaga, 3.25 ppm): TNTC
- Xylella growth (CFU) ([2]; strain Coyaga, 62.5 ppm): TNTC
- Xylella growth (CFU) ([2]; strain Melody, 3.25 ppm): TNTC
- Xylella growth (CFU) ([2]; strain Melody, 62.5 ppm): TNTC
- Xylella growth (CFU) ([2]; strain Shiraz, 3.25 ppm): TNTC
- Xylella growth (CFU) ([2]; strain Shiraz, 62.5 ppm): TNTC**
- cells that survived the treatment [3]: no cells
- cells that survived the treatment [4]: no cells
- color changing units [5]: 10^9 CCUs and 10^7 CCUs and 10^3 CCUs
- color changing units [6]: 10^9 CCUs and 10^6 CCUs
- color changing units [7]: 10^8 CCUs and 10^7 CCUs and 10^6 CCUs and 10^5 CCUs and 10^4 CCUs
- kill of cells by the treatment [7]: not enough to kill
- AYP symptoms of treated plants ([8]; 500 ppm citral in water, 500 mL per plant Day 8 and Day 14, three plants, as of Day 108): remained symptomless
- AYP symptoms of treated periwinkles ([8]; 500 ppm, 500 mL per plant Day 8 and Day 15, three plants, as of Day 174): remained symptomless
- delay of symptom development ([8]; in vivo): 22 days
- effect on cells of X. fastidiosa strains ([9]; 250 ppm, 24-hr. treatment): killed cells of all 11 strains
- MIC ([9]; 4 grape strains, 2 sycamore strains, and 1 peach strain): 125 µg/mL (≈ 821 µM)
- MIC ([9]; 24 h, strain 2#6, Plum leaf scald): 62.5 µg/mL (≈ 411 µM)
- MIC ([9]; 24 h, strain 3SV, Pierce's disease of grapevine): 125 µg/mL (≈ 821 µM)
- MIC ([9]; 24 h, strain 4#5, Phony disease of peach): 125 µg/mL (≈ 821 µM)
- MIC ([9]; 24 h, strain 4BD2, Pecan leaf scorch): 62.5 µg/mL (≈ 411 µM)
- MIC ([9]; 24 h, strain #6, Oleander leaf scorch): 62.5 µg/mL (≈ 411 µM)
- MIC ([9]; 24 h, strain Cayuga, Pierce's disease of grapevine): 125 µg/mL (≈ 821 µM)
- MIC ([9]; 24 h, strain Melody, Pierce's disease of grapevine): 125 µg/mL (≈ 821 µM)
- MIC ([9]; 24 h, strain SLS#61, Sycamore leaf scorch): 125 µg/mL (≈ 821 µM)
- MIC ([9]; 24 h, strain SLS-DC, Sycamore leaf scorch): 125 µg/mL (≈ 821 µM)
- MIC ([9]; 24 h, strain Shiraz, Pierce's disease of grapevine): 125 µg/mL (≈ 821 µM)
- MIC ([9]; 24 h, strain Yugo, Pierce's disease of grapevine): 62.5 µg/mL (≈ 411 µM)
- MIC ([9]; strains from grape, plum, pecan, and oleander): 62.5 µg/mL (≈ 411 µM)
- treated vines positive for bacteria (isolation and ELISA) ([10]; other vines, treated Day 206 and Day 213, sampled on Day 252): Four out of 15
- treated vines positive for presence of bacteria (isolation and ELISA) ([10]; treated Day 0 and Day 7, sampled on Day 252): Three out of 15
- average branch length longer than control vines [11]: ~6 inches
- average fruit yield [12]: about 4.8 lbs of fruit per vine
- average increased yield [12]: about 6.25%
- concentration at which phytotoxic ([13]; grape): approximately 5000 ppm
- phytotoxicity in grape [13]: phytotoxicity
- weekly observations of treated healthy vines [14]: no phytoplasma on any plants
- citral in growth media that reduced the concentration of E. coli [15]: more than 0.01%
- citral in growth media with bactericidal effect [15]: 0.08%
